# In US7968098B2, “HLA-A24-binding KIF-derived peptide” (Kurume University, priority 2006, dated 2011):
# Read-outs that look alike come from different tables or passages of the source. No end group written: not given here.
# What was measured:
# KNS-81 cells = experiment: 6-h 51Cr-release cytotoxicity assay of peptide-stimulated PBMCs / CD8+ T cells; format: cell-based, human; settings: for Cytotoxicity of peptide-induced CD8+ T cells on addition of anti-HLA class I mAb / Cytotoxicity on addition of unlabeled C1R-A24 cells pre-pulsed with corresponding KIF peptide (cold inhibition): KNS-81 cells; for Cytotoxicity of peptide-induced CD8+ T cells on addition of anti-HLA class I mAb: FIG. 3A, not inhibited by anti-HLA class II (HLA-DR) or anti-CD14 mAb; for Cytotoxicity on addition of unlabeled C1R-A24 cells pre-pulsed with corresponding KIF peptide (cold inhibition): FIG. 3B, not inhibited by HIV peptide-pulsed C1R-A24 cells; for Cytotoxicity of peptide-stimulated PBMCs against KNS-81 cells: patients 3 and 5, HLA-A24+ KNS-81 vs HLA-A24- No. 11 cells and HLA-A24+ T-cell blasts
# Procedure: Peptide-stimulated PBMCs were tested for their cytotoxicity against No. 11 (HLA-A24 negative) and KNS-81 (HLA-A24 positive) by a standard 6-h ^51Cr-release assay. Phytohaemagglutinin (PHA)-activated T cells (T cell blast) from HLA-A24 positive healthy donors were used as a negative control. The PBMCs were stimulated with each of the KIF peptides (10 μg/ml) in the presence of IL-2 (100 units/ml) every 3 days for 15 days, followed by incubation with IL-2 alone for an additional 15 days. After CD8^+ T cells were positively isolated using a CD8-positive isolation kit (Dynal, Oslo, Norway), 2,000 ^51Cr-labeled cells per well were cultured with effector cells in 96-round-well plates. The specific ^51Cr-release was calculated according to the following formula: % specific lysis=(test sample release−spontaneous release)×100/(maximum release−spontaneous release). Spontaneous release was determined using the supernatant of the sample incubated with no effector cells, and the maximum release was then determined by the supernatant of the sample incubated with 1% Triton X (Wako Pure Chemical Industries, Osaka, Japan). In some experiments, anti-HLA class I (W6/32, mouse IgG2a) (BioLegend, Camino Santa Fe, San Diego, Calif., USA), anti-HLA class II (HLA-DR) (L243, mouse IgG2a) (ATCC #HB-55), and anti-CD14 (JML-H14, mouse IgG2a) (established in Department of Immunology, Kurume University) mAb were added to the wells at the initiation of the culture. The specificity of peptide-stimulated PBMCs was also confirmed by a cold inhibition assay. 20,000 unlabeled C1R-A24 cells, which were pre-pulsed with either the HIV peptide or a corresponding peptide, were used as cold target cells. Unlabeled C1R-A24 cells were added at a hot to cold target ratio of […].
# [1] = system: anti-peptide immunoglobulin G (IgG) in plasma; experiment: Anti-peptide IgG in plasma measured by the Luminex system; format: binding, human; settings: for Total (IgG-positive cases/total cases): positive = >1.25 times no peptide control; for Positive cases/total cases, Patients: Table 3, IgGs reactive to peptide in plasma of glioma patients; for Positive cases/total cases, Healthy donors: Table 3, IgGs reactive to peptide in plasma of healthy donors; for Positive cases/total cases, Total: Table 3, patients plus healthy donors; for Recognition by IgGs in the plasma compared with the other peptides: plasma of glioma patients and healthy donors
# Procedure: The levels of anti-peptide immunoglobulin G (IgG) were measured by the Luminex™ system as previously reported (Komatsu N et al, Scand J Clin Invest 2004; 64: 1-11). In brief, plasma was incubated with 25 μl of peptide-coupled color-coded beads (Luminex Corp., Austin, Tex., USA) for 2 h at room temperature on a plate shaker. After incubation, the mixture was washed with a vacuum manifold apparatus and incubated with 100 μl of biotinylated goat anti-human IgG (BA-3080, Vector Laboratories, Burlingame, Calif., USA) for 1 h at room temperature. The plate was then washed, and 100 μl of streptavidin-PE (S-866, Molecular Probes, Eugene, Oreg., USA) was added to each well and was incubated for 30 min at room temperature on a plate shaker. The bound beads were washed three times followed by the addition of 100 μl of Tween-PBS to each well. Fifty μl of each sample was then examined using the Luminex™ system.
# Next, the abilities of the KIF-derived peptides to be recognized by IgGs of glioma patients were examined, because IgGs reactive to CTL-directed peptides are detectable in the plasma of patients with different types of cancer (Nakatsura T et al, Eur J Immunol 32: 826-836, 2002), along with that levels of IgG well correlated with clinical responses of patients who received peptide vaccination as reported previously (Mine T et al, Clin Cancer Res 10: 929-937, 2004; Yajima N et al, Clin Cancer Res 11: 5900-5911, 2005). IgGs reactive to a corresponding peptide were judged to be significant when the immunofluorescence intensity in 1:100-diluted plasma exceeded 1.25 times that of the control samples with no peptides. […] Based on these findings, these 8 KIF peptides (3 for KIF1C, 3 for KIF3C, and 2 for KIF21B) were the focus of the following experiments.
# [2] = system: PBMCs of HLA-A24+ glioma patients; format: cell-based, human; settings: for Total (patients with induction of peptide-reactive CTLs): HLA-A24+ glioma patients, positive = P<0.05 and >100 pg/ml IFN-γ over HIV peptide; for IFN-γ: vs HIV peptide
# [3] = Healthy donor 2, 1:100-diluted plasma
# [4] = Healthy donor 4, 1:100-diluted plasma
# [5] = glioma Patient 4, 1:100-diluted plasma
# [6] = glioma Patient 8, 1:100-diluted plasma
# [7] = glioma Patient 9, 1:100-diluted plasma
# [8] = PBMCs of HLA-A24+ glioma Patient 1, 10 μg/ml peptide
# [9] = PBMCs of HLA-A24+ glioma Patient 2, 10 μg/ml peptide
# [10] = PBMCs of HLA-A24+ glioma Patient 4, 10 μg/ml peptide
# [11] = PBMCs of HLA-A24+ glioma Patient 5, 10 μg/ml peptide
# [12] = PBMCs of HLA-A24+ glioma Patient 8, 10 μg/ml peptide
# [13] = PBMCs of HLA-A24+ glioma Patient 10, 10 μg/ml peptide
# [14] = PBMCs of HLA-A24+ glioma Patient 3, 10 μg/ml peptide
# [15] = PBMCs of HLA-A24+ glioma Patient 9, 10 μg/ml peptide
# [16] = PBMCs of HLA-A24+ glioma Patient 7, 10 μg/ml peptide
Sequence,"Positive cases/total cases, Patients [1]","Positive cases/total cases, Healthy donors [1]","Positive cases/total cases, Total [1]",Recognition by IgGs in the plasma compared with the other peptides [1],Total (patients with induction of peptide-reactive CTLs) [2],"IFN-γ [2, 8] [pg/mL]","IFN-γ [2, 9] [pg/mL]","IFN-γ [2, 10] [pg/mL]","IFN-γ [2, 12] [pg/mL]","IFN-γ [2, 13] [pg/mL]","IFN-γ [2, 14] [pg/mL]","IFN-γ [2, 15] [pg/mL]","IFN-γ [2, 16] [pg/mL]",further results
KYKAMESKL [KIF3C 512-520],–,–,–,–,–,–,–,–,–,–,–,–,–,Cytotoxicity of peptide-induced CD8+ T cells on addition of anti-HLA class I mAb (KNS-81 cells): significantly inhibited; Cytotoxicity on addition of unlabeled C1R-A24 cells pre-pulsed with corresponding KIF peptide (cold inhibition) (KNS-81 cells): significantly inhibited; Cytotoxicity of peptide-stimulated PBMCs against KNS-81 cells (KNS-81 cells): higher level of cytotoxicity against HLA-A24^+ KNS-81 cells
IYCERVRDLL [KIF1C 149-158],–,–,–,–,–,–,–,–,–,–,–,–,–,Cytotoxicity of peptide-induced CD8+ T cells on addition of anti-HLA class I mAb (KNS-81 cells): significantly inhibited; Cytotoxicity on addition of unlabeled C1R-A24 cells pre-pulsed with corresponding KIF peptide (cold inhibition) (KNS-81 cells): significantly inhibited; Cytotoxicity of peptide-stimulated PBMCs against KNS-81 cells (KNS-81 cells): higher level of cytotoxicity against HLA-A24^+ KNS-81 cells
IYCERVRDL (KIF1C 149-157 peptide),7/10,8/10,15/20,more frequently,4/10,92,0,50,0,0,–,–,–,"Immunofluoresence intensity [1, 3]: 31.8; Immunofluoresence intensity [1, 4]: 47.8; Total (IgG-positive cases/total cases) ([1]; Table 2, glioma patients): 7/10; Total (IgG-positive cases/total cases) ([1]; Table 2, healthy donors): 8/10; Immunofluoresence intensity [1, 5]: 29.5; Immunofluoresence intensity [1, 6]: 12.3; Immunofluoresence intensity [1, 7]: 27.3; IFN-γ [2, 11]: 0 pg/mL"
NYLQEQKERL (KIF3C 458-467 peptide),4/10,4/10,8/20,more frequently,3/10,34,0,–,38,0,30,–,–,"IFN-γ [2, 11]: 66 pg/mL; IFN-γ ([2]; PBMCs of HLA-A24+ glioma Patient 6, 10 μg/ml peptide): 55 pg/mL"
RYRAENIMF (KIF3C 702-710 peptide),7/10,9/10,16/20,more frequently,3/10,11,0,0,96,0,73,22,–,–
HYDGIECLAI (KIF21B 621-630 peptide),2/10,5/10,7/20,more frequently,3/10,0,10,0,–,0,0,0,93,–
RYADRTKQI (KIF1C 340-348 peptide),7/10,7/10,14/20,more frequently,3/10,66,16,80,96,0,–,52,65,"Immunofluoresence intensity [1, 3]: 21.5; Immunofluoresence intensity [1, 4]: 45.3; Immunofluoresence intensity ([1]; Healthy donor 5, 1:100-diluted plasma): 59.0; Total (IgG-positive cases/total cases) ([1]; Table 2, glioma patients): 7/10; Total (IgG-positive cases/total cases) ([1]; Table 2, healthy donors): 7/10; Immunofluoresence intensity [1, 5]: 26.0; Immunofluoresence intensity [1, 6]: 14.8; Immunofluoresence intensity [1, 7]: 17.5"
GYASTDEEI (KIF21B 220-228 peptide),2/10,3/10,5/20,more frequently,4/10,0,29,–,–,0,56,0,51,–
